Measured values from PubChem BioAssay AID330 (DTP/NCI, 2004).
Where “and” joins values, the source holds several entries; their conditions need not be identical. Identical values can stand only once. Toxic doses and inconclusive results are not listed.

Test system: P388 leukemia ip, CD2F1 mice, survival T/C
Test: NCI In Vivo Anticancer Drug Screen. Data for tumor model P388 Leukemia (intraperitoneal) in CD2F1 (CDF1) mice
Details: endpoint: median survival time, higher = longer survival
Procedure, shortened: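 Mice carrying the transplanted tumor received test compound or vehicle. Survival was recorded in each group, and the value is the treated-group measurement divided by that of the vehicle-treated control group.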

[1] = dose: 50.0 mg/kg/injection, schedule: Q01DX005 (ip), vehicle: saline
[2] = dose: 60.0 mg/kg/injection, schedule: Q01DX005 (ip), vehicle: saline with Tween-80
[3] = dose: 120.0 mg/kg/injection, schedule: Q01DX005 (ip), vehicle: saline with Tween-80

COCCCOC(=O)NCCCCC(N)C(=O)O (stereo unspecified)
T/C [1]: 98 % of control
T/C (dose: 100.0 mg/kg/injection, schedule: Q01DX005 (ip), vehicle: saline): 106 % of control
T/C (dose: 200.0 mg/kg/injection, schedule: Q01DX005 (ip), vehicle: saline): 100 % of control

CC1=CC(C)(C)N(C)C(N)=N1
T/C (dose: 12.5 mg/kg/injection, schedule: Q01DX005 (ip), vehicle: saline): 100 % of control
T/C (dose: 25.0 mg/kg/injection, schedule: Q01DX005 (ip), vehicle: saline): 91 % of control
T/C [1]: 91 % of control

CC1(C)N=C(N)N=C(N)N1c1cccc(CCCCc2ccccc2)c1
T/C (dose: 0.75 mg/kg/injection, schedule: Q01DX009 (ip), vehicle: saline sonified): 109 % of control
T/C (dose: 1.5 mg/kg/injection, schedule: Q01DX009 (ip), vehicle: saline sonified): 113 % of control
T/C (dose: 3.0 mg/kg/injection, schedule: Q01DX009 (ip), vehicle: saline sonified): 118 % of control
T/C (dose: 50.0 mg/kg/injection, schedule: Q04DX003 (ip), vehicle: saline sonified): 86 % of control

Cc1cc(O[Si](C)(C)C)nc(O[Si](C)(C)C)n1
T/C [2]: 106 % of control
T/C [3]: 110 % of control
T/C (dose: 240.0 mg/kg/injection, schedule: Q01DX005 (ip), vehicle: saline with Tween-80): 105 % of control

O=c1c2nccnc2nc2n1CCS2
T/C (dose: 100.0 mg/kg/injection, schedule: Q04DX003 (ip), vehicle: Klucel (hydroxypropylcellulose) (HPC)): 100 % of control
T/C (dose: 200.0 mg/kg/injection, schedule: Q04DX003 (ip), vehicle: Klucel (hydroxypropylcellulose) (HPC)): 101 % of control
T/C (dose: 400.0 mg/kg/injection, schedule: Q04DX003 (ip), vehicle: Klucel (hydroxypropylcellulose) (HPC)): 107 % of control

Cc1cc(=O)n2c(n1)sc1cc(Cl)ccc12
T/C (dose: 18.75 mg/kg/injection, schedule: Q04DX002 (ip), vehicle: Klucel (hydroxypropylcellulose) (HPC)): 102 % of control
T/C (dose: 37.5 mg/kg/injection, schedule: Q04DX002 (ip), vehicle: Klucel (hydroxypropylcellulose) (HPC)): 93 % of control
T/C (dose: 75.0 mg/kg/injection, schedule: Q04DX002 (ip), vehicle: Klucel (hydroxypropylcellulose) (HPC)): 101 % of control

Cc1nc2c([N+](=O)[O-])c(N3CCN(C)CC3)c([N+](=O)[O-])cc2[nH]1
T/C (dose: 12.5 mg/kg/injection, schedule: Q04DX003 (ip), vehicle: saline with Tween-80): 95 % of control
T/C (dose: 25.0 mg/kg/injection, schedule: Q04DX003 (ip), vehicle: saline with Tween-80): 106 % of control
T/C (dose: 50.0 mg/kg/injection, schedule: Q04DX003 (ip), vehicle: saline with Tween-80): 100 % of control and 90 % of control
T/C (dose: 100.0 mg/kg/injection, schedule: Q04DX003 (ip), vehicle: saline with Tween-80): 104 % of control

O=c1c2cccnc2oc2c(Cl)cc(-c3nn[nH]n3)cc12
T/C (dose: 50.0 mg/kg/injection, schedule: Q01DX005 (ip), vehicle: Klucel (hydroxypropylcellulose) (HPC)): 97 % of control
T/C (dose: 100.0 mg/kg/injection, schedule: Q01DX005 (ip), vehicle: Klucel (hydroxypropylcellulose) (HPC)): 111 % of control
T/C (dose: 200.0 mg/kg/injection, schedule: Q01DX005 (ip), vehicle: Klucel (hydroxypropylcellulose) (HPC)): 97 % of control

CCCCCCCCCCCC(O)CCCC(O)CC(O)CC1CC2CC(CC(=O)O2)O1 (stereo unspecified)
T/C (dose: 4.0 mg/kg/injection, schedule: Q01DX009 (ip), vehicle: Klucel (hydroxypropylcellulose) (HPC)): 100 % of control
T/C (dose: 8.0 mg/kg/injection, schedule: Q01DX009 (ip), vehicle: Klucel (hydroxypropylcellulose) (HPC)): 99 % of control
T/C (dose: 16.0 mg/kg/injection, schedule: Q01DX009 (ip), vehicle: Klucel (hydroxypropylcellulose) (HPC)): 95 % of control
T/C (dose: 32.0 mg/kg/injection, schedule: Q01DX009 (ip), vehicle: Klucel (hydroxypropylcellulose) (HPC)): 95 % of control
T/C (dose: 64.0 mg/kg/injection, schedule: Q01DX009 (ip), vehicle: Klucel (hydroxypropylcellulose) (HPC)): 94 % of control

CCN(CC)C(C)(C)C(=O)/C=C/c1ccc(C)cc1
T/C [2]: 107 % of control
T/C [3]: 103 % of control

CCCSCCNC(=O)C1(O)C(O)C2(CC)C=CCN3CCC4(c5cc(C6(OC(C)=O)CC7C=C(CC)CN(CCc8c6[nH]c6ccccc86)C7)c(OC)cc5N(C)C14)C32 (stereo unspecified)
T/C (dose: 0.5 mg/kg/injection, schedule: Q01DX001 (ip), vehicle: water): 107 % of control
T/C (dose: 2.0 mg/kg/injection, schedule: Q01DX001 (ip), vehicle: water): 111 % of control
T/C (dose: 4.0 mg/kg/injection, schedule: Q01DX001 (ip), vehicle: water): 159 % of control
T/C (dose: 8.0 mg/kg/injection, schedule: Q01DX001 (ip), vehicle: water): 161 % of control
T/C (dose: 16.0 mg/kg/injection, schedule: Q01DX001 (ip), vehicle: water): 158 % of control and 198 % of control

CCCCCCCCCCCCCCCC[N+]1(CCC(C)C)CCOCC1
T/C (dose: 100.0 mg/kg/injection, schedule: Q04DX002 (ip), vehicle: Klucel (hydroxypropylcellulose) (HPC)): 100 % of control
T/C (dose: 200.0 mg/kg/injection, schedule: Q04DX002 (ip), vehicle: Klucel (hydroxypropylcellulose) (HPC)): 94 % of control
T/C (dose: 400.0 mg/kg/injection, schedule: Q04DX002 (ip), vehicle: Klucel (hydroxypropylcellulose) (HPC)): 104 % of control
